Test results: patent publication US7468392B1, “Anti-fatigue cyclohexenone compounds from antrodia camphorata” (Golden Biotechnology Corporation, priority 2007, dated 2008)
Entries after “also recorded” stand apart in the source; their conditions may differ.

What was measured:
Assay type in all cases: in vivo, human
healthy male volunteers [1] = assay: Anti-fatigue test for cyclohexenone of Antrodia camphorata (fatigue indexes overall); settings: after exhaustive exercising at 80% VO2max, indexes CPK, lactic acid, glucose, ammonia, free fatty acid
Method: (§1) The present invention is based on supplementing cyclohexenone of Antrodia camphorata or placebo with no cyclohexenone of Antrodia camphorata to the subjects. The subjects were tested for the anti-fatigue function after supplementing cyclohexenone of Antrodia camphorata by measuring the amounts of fatigue indexes such as CPK, lactic acid, glucose, ammonia and free fatty acid before and after exhaustive exercise load at 80% VO2max.
Subjects were randomized to receive either cyclohexenone of Antrodia camphorata or placebo. Placebo contained substances such as cornstarch but no cyclohexenone of Antrodia camphorata. A double-blind, cross-over method was performed in this study where neither the evaluator nor the subject knew the content of the test substances. Based on rules of order balance, each subject have to receive the following tests: relaxing and receiving placebo (PR), exercising and receiving placebo (PE), relaxing and receiving cyclohexenone of Antrodia camphorata (DR), and exercising and receiving cyclohexenone of Antrodia camphorata (DE). […] The exercise was performed on a treadmill with the load intensity at the measured 80% VO2max (7.61±1.87) until exhausted. […] The fatigue indexes such as CPK, lactic acid, glucose, ammonia and free fatty acid were analyzed accordingly. […]

healthy male volunteers [2] = assay: Creatine phosphate kinase (CPK) activity in plasma before/after exhaustive exercise at 80% VO2max; settings: for creatine phosphate kinase levels: plasma, Mean, n = 15
Method: as §1
(§2) Subjects were randomized to receive either cyclohexenone of Antrodia camphorata or placebo. Placebo contained substances such as cornstarch but no cyclohexenone of Antrodia camphorata. A double-blind, cross-over method was performed in this study where neither the evaluator nor the subject knew the content of the test substances. Based on rules of order balance, each subject have to receive the following tests: relaxing and receiving placebo (PR), exercising and receiving placebo (PE), relaxing and receiving cyclohexenone of Antrodia camphorata (DR), and exercising and receiving cyclohexenone of Antrodia camphorata (DE). Each test was carried out for one week, and took one week off before the next test until all 4 tests were performed in each subject. The exercise was performed on a treadmill with the load intensity at the measured 80% VO2max (7.61±1.87) until exhausted. Subjects received cyclohexenone of Antrodia camphorata or placebo after exercise in the amount of 0.2 g/kg body weight per day. […] Blood was collected in anticoagulant (such as EDTA) containing collection tubes, and was centrifuged at 3000 g. for 10 min to collect the plasma. The fatigue indexes such as CPK, lactic acid, glucose, ammonia and free fatty acid were analyzed accordingly. The physiological and biochemical changes before and after exercise with different supplements were compared and shown as values of mean and standard error (Mean±SEM). […] The details for the biochemical analysis and results are described below:
The measurement of creatine phosphate kinase was performed with an automated blood analyzer Johnson & Johnson DT-60II based on enzyme function and spectrophotometric theory. Creatine phosphate […] was added into a defined amount of plasma to react, followed by addition of 4-aminoantipyrine and 1,7-dihydroxynaphthalene. A […] product was formed through peroxidase function. The absorbance at 680 nm was measured to obtain the concentration of creatine kinase.

healthy male volunteers [3] = assay: Ammonia levels in blood before/after exhaustive exercise at 80% VO2max; settings: for blood ammonia levels: plasma, Mean, n = 15; for effect of supplementation after exercise on metabolism of blood ammonia: exhaustive exercise at 80% VO2max, versus placebo
Method: as §1, §2
The measurement of blood ammonia was performed with an automated blood analyzer Johnson & Johnson DT-60II based on the spectrophotometric method. Bromphenol blue was added into a defined amount of plasma to generate blue products. The reaction is shown below:
The absorbance at 605 nm was measured to obtain the concentration of blood ammonia.

healthy male volunteers [4] = assay: Blood glucose before meals, before/after exhaustive exercise at 80% VO2max; settings: for blood glucose levels: plasma, Mean, n = 15; for effect of supplementation on blood glucose metabolism before meals: exhaustive exercise at 80% VO2max, versus placebo
Method: as §1, §2
The measurement of blood glucose was performed with an automated blood analyzer Johnson & Johnson DT-600 II based on enzyme function and spectrophotometric method. Glucose oxidase was added into a defined amount of plasma for reaction, followed by addition of 4-aminoantipyrine and 1,7-dihydroxyphthalene. A red product was formed through function of peroxidase. The reactions are shown below:
The absorbance at 555 nm was measured to obtain the concentration of blood glucose.

[5] = listed as cyclohexenone from Antrodia camphorea
[6] = Relax (DR), Post-exercise 0.5 h
[7] = Relax (DR), Post-exercise 120 h
[8] = Relax (DR), Post-exercise 168 h
[9] = exercise (DE), Post-exercise 0 h
[10] = exercise (DE), Post-exercise 0.5 h
[11] = exercise (DE), Post-exercise 1 h
[12] = exercise (DE), Post-exercise 2 h
[13] = exercise (DE), Post-exercise 24 h
[14] = exercise (DE), Post-exercise 48 h
[15] = exercise (DE), Post-exercise 72 h
[16] = exercise (DE), Post-exercise 120 h
[17] = exercise (DE), Post-exercise 168 h
[18] = exercise (DE), Prior to exercise
[19] = listed as cyclohexenone from Antrodia camphorata

For COC1=C(OC)C(O)C(C/C=C(\C)CC/C=C(\C)CCC=C(C)C)C(C)C1=O (stereo not drawn) [cyclohexenone, 4-hydroxy-2,3-dimethoxy-6-methyl-5(3,7,11-trimethyl-dodeca-2,6,10-trienyl)-cyclohex-2-enone], the “anti-fatigue function (physiological fatigue after exercise)” value (healthy male volunteers [1]; listed as 4-hydroxy-2,3-dimethoxy-6-methyl-5(3,7,11-trimethyl-dodecca-2,6,10-trienyl)-cycl) was “can be used to delay physiological fatigue after exercise”, the “anti-fatigue function (physiological fatigue after exercise)” value (healthy male volunteers [1]; [5]) was “delays physiological fatigue” and the “creatine phosphate kinase levels” value (healthy male volunteers [2]; Relax (DR), Post-exercise 0 h) was 150.20 U/L. The “creatine phosphate kinase levels” value (healthy male volunteers [2]; [6]) was 166.53 U/L, the “creatine phosphate kinase levels” value (healthy male volunteers [2]; Relax (DR), Post-exercise 1 h) was 167.40 U/L and the “creatine phosphate kinase levels” value (healthy male volunteers [2]; Relax (DR), Post-exercise 2 h) was 146.33 U/L. For the same compound, the “creatine phosphate kinase levels” value (healthy male volunteers [2]; Relax (DR), Post-exercise 24 h) was 158.47 U/L, the “creatine phosphate kinase levels” value (healthy male volunteers [2]; Relax (DR), Post-exercise 48 h) was 133.87 U/L and the “creatine phosphate kinase levels” value (healthy male volunteers [2]; Relax (DR), Post-exercise 72 h) was 165.73 U/L. For the same compound, the “creatine phosphate kinase levels” value (healthy male volunteers [2]; [7]) was 243.00 U/L, the “creatine phosphate kinase levels” value (healthy male volunteers [2]; [8]) was 183.27 U/L and the “creatine phosphate kinase levels” value (healthy male volunteers [2]; Relax (DR), Prior to exercise) was 167.27 U/L. The “creatine phosphate kinase levels” value (healthy male volunteers [2]; [9]) was 259.57 U/L, the “creatine phosphate kinase levels” value (healthy male volunteers [2]; [10]) was 221.86 U/L and the “creatine phosphate kinase levels” value (healthy male volunteers [2]; [11]) was 232.93 U/L. For the same compound, the “creatine phosphate kinase levels” value (healthy male volunteers [2]; [12]) was 208.07 U/L, the “creatine phosphate kinase levels” value (healthy male volunteers [2]; [13]) was 332.50 U/L and the “creatine phosphate kinase levels” value (healthy male volunteers [2]; [14]) was 244.00 U/L. For the same compound, the “creatine phosphate kinase levels” value (healthy male volunteers [2]; [15]) was 193.86 U/L, the “creatine phosphate kinase levels” value (healthy male volunteers [2]; [16]) was 193.86 U/L and the “creatine phosphate kinase levels” value (healthy male volunteers [2]; [17]) was 204.83 U/L. For the same compound, the “creatine phosphate kinase levels” value (healthy male volunteers [2]; [18]) was 226.64 U/L, the “effect of supplementation after exercise on creatine phosphate kinase levels” value (healthy male volunteers [2]; exhaustive exercise at 80% VO2max, 0.2 g/kg body weight per day, versus placebo, listed as cyclohexenone from Antrodia camphorata) was “effectively decreases the muscular injury marker of creatine phosphate kinase levels; also recorded: significant effect (p<0.05) in metabolism of creatine phosphate kinase” and the “ammonia levels in DE group versus those before exercise” value (healthy male volunteers [3]; 24 h post exercise) was “significantly lower”. It also gave a blood ammonia levels (healthy male volunteers [3]; Relax (DR), Post-exercise 0 h) of 55.60 µg/dL, a blood ammonia levels (healthy male volunteers [3]; [6]) of 52.53 µg/dL and a blood ammonia levels (healthy male volunteers [3]; Relax (DR), Post-exercise 1 h) of 57.47 µg/dL. The blood ammonia levels (healthy male volunteers [3]; Relax (DR), Post-exercise 2 h) was 54.07 µg/dL, the blood ammonia levels (healthy male volunteers [3]; Relax (DR), Post-exercise 24 h) was 30.33 µg/dL and the blood ammonia levels (healthy male volunteers [3]; Relax (DR), Post-exercise 48 h) was 26.86 µg/dL. For the same compound, the blood ammonia levels (healthy male volunteers [3]; Relax (DR), Post-exercise 72 h) was 25.20 µg/dL, the blood ammonia levels (healthy male volunteers [3]; [7]) was 27.80 µg/dL and the blood ammonia levels (healthy male volunteers [3]; [8]) was 28.57 µg/dL. For the same compound, the blood ammonia levels (healthy male volunteers [3]; Relax (DR), Prior to exercise) was 39.20 µg/dL, the blood ammonia levels (healthy male volunteers [3]; [9]) was 118.07 µg/dL and the blood ammonia levels (healthy male volunteers [3]; [10]) was 57.64 µg/dL. The blood ammonia levels (healthy male volunteers [3]; [11]) was 44.86 µg/dL, the blood ammonia levels (healthy male volunteers [3]; [12]) was 37.53 µg/dL and the blood ammonia levels (healthy male volunteers [3]; [13]) was 27.93 µg/dL. It also gave a blood ammonia levels (healthy male volunteers [3]; [14]) of 20.93 µg/dL, a blood ammonia levels (healthy male volunteers [3]; [15]) of 30.07 µg/dL and a blood ammonia levels (healthy male volunteers [3]; [16]) of 23.21 µg/dL. For the same compound, the blood ammonia levels (healthy male volunteers [3]; [17]) was 24.86 µg/dL, the blood ammonia levels (healthy male volunteers [3]; [18]) was 45.86 µg/dL and the “effect of supplementation after exercise on metabolism of blood ammonia” value (healthy male volunteers [3]; [19]) was “facilitates the metabolism of blood ammonia”. For the same compound, the “effect of supplementation after exercise on metabolism of blood ammonia” value (healthy male volunteers [3]; [5]) was “beneficial to the recovery of creatine phosphate kinase and blood ammonia”, the “blood ammonia level, exercise group versus relax group receiving cyclohexenone” value (healthy male volunteers [3]; post exercise at 2 h, p<0.05) was “significantly superior” and the blood glucose levels (healthy male volunteers [4]; Relax (DR), Post-exercise 0 h) was 91.93 mg/dL. For the same compound, the blood glucose levels (healthy male volunteers [4]; [6]) was 93.33 mg/dL, the blood glucose levels (healthy male volunteers [4]; Relax (DR), Post-exercise 1 h) was 95.53 mg/dL and the blood glucose levels (healthy male volunteers [4]; Relax (DR), Post-exercise 2 h) was 103.20 mg/dL. For the same compound, the blood glucose levels (healthy male volunteers [4]; Relax (DR), Post-exercise 24 h) was 90.00 mg/dL, the blood glucose levels (healthy male volunteers [4]; Relax (DR), Post-exercise 48 h) was 90.40 mg/dL and the blood glucose levels (healthy male volunteers [4]; Relax (DR), Post-exercise 72 h) was 93.40 mg/dL. The blood glucose levels (healthy male volunteers [4]; [7]) was 94.00 mg/dL, the blood glucose levels (healthy male volunteers [4]; [8]) was 92.20 mg/dL and the blood glucose levels (healthy male volunteers [4]; Relax (DR), Prior to exercise) was 91.73 mg/dL. The blood glucose levels (healthy male volunteers [4]; [9]) was 103.43 mg/dL, the blood glucose levels (healthy male volunteers [4]; [10]) was 88.71 mg/dL and the blood glucose levels (healthy male volunteers [4]; [11]) was 93.86 mg/dL. It also gave a blood glucose levels (healthy male volunteers [4]; [12]) of 101.07 mg/dL, a blood glucose levels (healthy male volunteers [4]; [13]) of 94.43 mg/dL and a blood glucose levels (healthy male volunteers [4]; [14]) of 89.21 mg/dL. For the same compound, the blood glucose levels (healthy male volunteers [4]; [15]) was 93.00 mg/dL, the blood glucose levels (healthy male volunteers [4]; [16]) was 93.29 mg/dL and the blood glucose levels (healthy male volunteers [4]; [17]) was 92.93 mg/dL. For the same compound, the blood glucose levels (healthy male volunteers [4]; [18]) was 89.21 mg/dL, the “effect of supplementation on blood glucose metabolism before meals” value (healthy male volunteers [4]; [19]) was “no effect” and the “effect of supplementation on blood glucose metabolism before meals” value (healthy male volunteers [4]; listed as cyclohexenone of Antrodia camphorata) was “no significant difference”.
